For data set [1], the system named is pulmonary embolism induced by collagen. Nature of the data set: prevention of pulmonary embolic death in mice (collagen injection). The data set is classed as in vivo, Male ddY mice. To be noted: 300 mg/kg peroral, 3 h before collagen i.v.; control: 6/6 died. How it is done: The following tests were conducted to evaluate the effect of the claimed compounds in the prevention of pulmonary embolic death in mice.
Each of the compounds being tested was suspended in 0.5% carboxymethyl cellulose and administered perorally at a dosage of 300 mg/kg (0.1 ml/10 g body weight).
Male ddY mice weighing 18-20 g were subjected to the test after being starved overnight.
Three hours after oral administration of a selected test compound to the mice, 30 mg/kg of adenosine-5'-diphosphate sodium salt (Sigma Chemical Co., Grade IX) or collagen was injected through their tail veins. The number of mice which died of pulmonary embolism within 3 minutes after the intravenous injections was counted.
The adenosine-5'-diphosphate sodium salt (ADP 2Na) was in the form of a solution in physiological saline at a concentration of 300 mg/10 ml. The collagen was administered in the form of a solution which was prepared by the following procedure: 25 mg of collagen was uniformly sonicated in a solution containing 25 mmol of tris-HCl and 130 mmol of sodium chloride (pH: 7.3), and the resultant dispersion was incubated at 37° C. for 45 minutes to form a polymer (after incubation, the collagen solution was kept in ice-water until it was used).
As a control, 0.5% carboxymethyl cellulose (10 ml/kg) was administered through tail veins.

Data set [2] has as its system pulmonary embolism induced by adenosine-5'-diphosphate sodium salt (ADP 2Na). Nature of the data set: prevention of pulmonary embolic death in mice (ADP 2Na injection). It is filed as in vivo, Male ddY mice. The conditions noted are these: 300 mg/kg peroral; for Number of animals dying within 3 minutes after injection/Number of animals in test, ADP 2Na: 3 h before 30 mg/kg ADP 2Na i.v., control: 6/6 died; for thrombolytic effects compared with Ticlopidine: from Table 1 (ADP 2Na and collagen), mice.

Another data set relates to mice. The arrangement: species or system ddY male mice. To be noted: mouse, in vivo. The protocol:
The following acute toxicity test was conducted on mice:
Animal: Five-week old ddY male mice (wt: 21-27 g) in groups of 6.
Method: The mice were starved overnight and the compound prepared in Example 6 was administered perorally in an amount of 0.1 ml/10 g body weight after it was suspended in 0.5% carboxymethyl cellulose sodium salt (CMC-Na). As a control, 0.5% CMC-Na solution was administered.

Take `Clc1ccc(-c2cnccn2)cc1` [Example 1, 2-(4-chlorophenyl)pyrazine]: in data set [1], the “Number of animals dying within 3 minutes after injection/Number of animals in test, Collagen” value was 2/8. In addition, in data set [2], the “Number of animals dying within 3 minutes after injection/Number of animals in test, ADP 2Na” value was 4/9 and the “thrombolytic effects compared with Ticlopidine” value is reported as “equal to or greater than the levels achieved by a known thrombolytic agent, Ticlopidine”.
For `Cc1ccc(-c2cnccn2)cc1` [Example 2, 2-(4-methylphenyl)pyrazine], the “Number of animals dying within 3 minutes after injection/Number of animals in test, Collagen” value in data set [1] is recorded as 7/8. Besides, the “Number of animals dying within 3 minutes after injection/Number of animals in test, ADP 2Na” value in data set [2] is on record as 3/7.
Consider `COc1ccc(-c2cnccn2)cc1` [Example 3, 2-(4-methoxyphenyl)pyrazine], for which, in data set [1], the “Number of animals dying within 3 minutes after injection/Number of animals in test, Collagen” value is 6/8. For the same compound, in data set [2], the “Number of animals dying within 3 minutes after injection/Number of animals in test, ADP 2Na” value is listed as 4/7.
Consider `Clc1cccc(-c2cnccn2)c1` [Example 4, 2-(3-chlorophenyl)pyrazine], for which the “Number of animals dying within 3 minutes after injection/Number of animals in test, Collagen” value in data set [1] is on record as 6/10. Also, in data set [2], the “Number of animals dying within 3 minutes after injection/Number of animals in test, ADP 2Na” value is 5/10.
With `Clc1ccc(-c2cnccn2)c(Cl)c1` [Example 5, 2-(2,4-dichlorophenyl)pyrazine], the “Number of animals dying within 3 minutes after injection/Number of animals in test, Collagen” value in data set [1] is given as 4/10. In data set [2], the “Number of animals dying within 3 minutes after injection/Number of animals in test, ADP 2Na” value is 6/10.
With `Clc1ccc(-c2cnccn2)cc1Cl` [Example 6, 2-(3,4-dichlorophenyl)pyrazine], the “Number of animals dying within 3 minutes after injection/Number of animals in test, Collagen” value in data set [1] is 4/10. In addition, in data set [2], the “Number of animals dying within 3 minutes after injection/Number of animals in test, ADP 2Na” value was 3/10 and the “thrombolytic effects compared with Ticlopidine” value is reported as “equal to or greater than the levels achieved by a known thrombolytic agent, Ticlopidine”. Further, in the data set with mice, the “animals that died at the dosage levels used” value is reported as “none of the animals treated with the compound of Example 6 died” and the “changes in the general condition of the mice” value is on record as “No apparent changes were observed”.
As for `Clc1ccccc1-c1cnccn1` [Example 7, 2-(2-chlorophenyl)pyrazine], the “Number of animals dying within 3 minutes after injection/Number of animals in test, Collagen” value in data set [1] was 6/9. The “Number of animals dying within 3 minutes after injection/Number of animals in test, ADP 2Na” value in data set [2] is given as 5/10.
As to `Oc1ccc(-c2cnccn2)cc1` [Example 8, 2-(4-hydroxyphenyl)pyrazine], the “Number of animals dying within 3 minutes after injection/Number of animals in test, Collagen” value in data set [1] is on record as 7/8. In data set [2], the “Number of animals dying within 3 minutes after injection/Number of animals in test, ADP 2Na” value is given as 4/7.

(Values after patent US4755514A, “Phenylpyrazine derivatives and thrombolytic agent” (Suntory Limited, priority 1985, dated 1988).)
